Values of other authors as cited in publication PMC11555526, “Development of 2-Aminoadenine-Based Proteolysis-Targeting Chimeras (PROTACs) as Novel Potent Degraders of Monopolar Spindle 1 and Aurora Kinases” (ACS Pharmacology & Translational Science, 2024).

System: human TTK
Parameters: method as in PMID 23940287, PMID 32338514, PMID 27905678, PMID 27437075, PMID 30232224
Details: literature values, introduction and Figure 1; cited from earlier work

SMILES | IC50
COc1cc(S(C)(=O)=O)ccc1Nc1nc2ccc(-c3ccc(NC(=O)[C@H](C)c4ccc(F)cc4)cc3)cn2n1 [BAY1161909] | 1 nM
Cc1cc(-c2cnn3c(NC[C@H]4C[C@@](C)(O)C4)cc(Oc4cccnc4)nc23)ccc1C(=O)NC1CC1 [CFI-402257] | 1 nM
